From patent publication US20200206198A1, “CFTR CHANNEL ACTIVATOR FOR USE IN THE TREATMENT AND/OR PREVENTION OF GLUTEN SENSITIVITY CONDITIONS” (priority 2017, published 2020)

How the values were obtained:
[1] = system: recombinant human NBD1 (rhNBD1); experiment: Surface plasmon resonance peptide-protein interaction; type: binding
Method: Peptide-protein interactions were studied using a Biacore™ T100 (GE Healthcare) instrument. hrNBD1 domain or the indicated biotinylated peptides were immobilized by thiol coupling on a CMS (series S) sensor chip to a final density of 2000 resonance units (RU) or by biotin-streptavidin capture on a SA (series S) sensor chip to a final density of 250 RU, respectively. A flow cell with no immobilized protein or peptide was used as control. Binding analysis was carried out at 20° C. in a running buffer consisting of 10 mM HEPES, pH 7.4, 150 mM NaCl, 0.05% (v/v) Tween-20, 2 mM ATP, 5 mM MgCl2, 1 mM DTT applying a flow rate of 20 μl/min. For each experiment a Biacore™ method program was used. It included a series of three start up injections (running buffer), zero control (running buffer) and different concentrations of ligand. […] Each sensorgram (time-course of the surface plasmon resonance signal) was corrected for the response obtained in the control flow cell and normalized to baseline. Data were analysed using the 2.0.3 BIAevaluation software (GE Healthcare). At least three independent experiments for each analysis were performed.
FIG. 2: a, Protein-Protein docking and Molecular Dynamics of P31-43 (violet) bound to NBD1 (orange). Left side: general view of P31-43 and NBD1 interaction. Upper right: detailed interaction pattern, highlighting the most important amino acids. Lower right: in silico NBD1/P31-43 complex compared to the original crystallographic positions of Tip 401 and ATP. b, Graphical view of the in silico sampling percentage of P31-43 against NBD1/NBD2 (left 10 panel), and of P31-43/4QA (4QA) against NBD1 (right panel). c-d, Surface plasmon resonance (SPR) analysis of rhNBD1 binding to P31-43 and P57-68 biotinylated peptides immobilized on SA sensor chip (c) and of increasing concentrations of P31-43 and P57-68 peptides 15 on rhNBD1 covalently bound to the CMS sensor chip (d).

[2] = system: NOD mice transgenic for HLA DQ8 (NOD-DQ8); experiment: NOD-DQ8 mice orally challenged with gliadin; type: in vivo, mouse
Text: In the second model of gluten sensitivity, the Applicant resorted to non-obese diabetic (NOD) female mice, which spontaneously develop autoimmune type-1 diabetes (Maurano, F., et al. 2005).
BALB/c mice (background BALB/cAnNCrl) were purchased from Charles River (Varese, Italy). Three generation gluten-free diet (Mucedola srl, Milan), male and female, were challenged with gliadin for 4 weeks. […]
Chambers for mounting either transwell cell cultures or mouse tissue biopsies were obtained from Physiologic Instruments (model P2300, San Diego, Calif., USA). […] Shortcircuit current (expressed as Isc (μA/cm2)) and resistance were acquired or calculated using the VCC600 transepithelial clamp from Physiologic Instruments and the Acquire & Analyze 2.3 software for data acquisition (Physiologic Instruments), as previously described Tosco A, et al. 2016; Romani, L. et al. 2017).
ELISA analysis was performed on tissue samples using standard ELISA kits (R&D Systems) for IL-15, IL-17A, INFγ IL21, IL10, TGF-β. […] Samples were read in triplicate at 450 nm in a Microplate Reader (BioRad, Milan, Italy) using Microplate Manager 5.2.1 software. Values were normalized to protein concentration evaluated by Bradford analysis. […]

Row | Molecule | interaction with rhNBD1 in the flow phase ([1]; SPR, peptide immobilized on sensor chip) | SPR signal on immobilized rhNBD1 ([1]; rhNBD1 immobilized on chip, different peptide concentrations) | effect on gliadin-induced increase of IFN-γ [2]
1 | α-gliadin peptide LGQQQPFPPQQPY (SEQ ID 1), induces an enterocyte stress response (P31-43 sequence of alpha-gliadin) | confirmed the predicted interaction | yielded a dose-dependent signal | 
2 | CC(C)(C)c1cc(C(C)(C)C)c(NC(=O)c2c[nH]c3ccccc3c2=O)cc1O [VX-770, N-(2,4-di-tert-butyl-5-hydroxyphenyl)-4-oxo-1,4-dihydroquinoline-3-carboxamide] |  |  | counteracted the gliadin-induced increase of IFN-γ
